# Columns and labels:
# [1] = system: Mycobacterium tuberculosis Erdman (autoluminescent); test: AUC25, normalised area under dose response up to IC25 (three-drug combination) (fraction (0-1)); higher = more potent at low dose
# Experimental: (§1)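 DiaMOND equipotent three-drug combination dose responses (10 doses, 1.5- or 2-fold spacing, centred on IC90) against autoluminescent M. tuberculosis Erdman in 8 in vitro models. Read-out is OD600, or luminescence for the intracellular and dormancy models, normalised to untreated wells. Hill-fit Einf, AUC25 and GRinf are potency metrics; FIC50 and FIC90 are total Loewe fractional inhibitory concentrations as log2 (negative = synergy).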
# [2] = system: Mycobacterium tuberculosis Erdman (autoluminescent); test: GRinf, maximum normalised growth rate inhibition (three-drug combination) (unitless (-1 to 1)); higher = less effect (negative = killing)
# Experimental: as §1
# [3] = system: Mycobacterium tuberculosis Erdman (autoluminescent); test: total FIC90 (Loewe) at 90% inhibition, three-drug combination (log2); higher = more antagonistic
# Experimental: as §1
# [4] = system: Mycobacterium tuberculosis Erdman (autoluminescent); test: total FIC50 (Loewe) at 50% inhibition, three-drug combination (log2); higher = more antagonistic
# Experimental: as §1
# [5] = system: Mycobacterium tuberculosis Erdman (autoluminescent); test: Einf, fitted maximum growth inhibition of three-drug combination (fraction); higher = stronger maximal inhibition
# Experimental: as §1
# [6] = in vitro model: acidic pH 5.7, time point: constant (~7 days, model-specific)
# [7] = in vitro model: acidic pH 5.7, time point: terminal (~4-5 doublings, model-specific)
# [8] = in vitro model: butyrate, time point: constant (~7 days, model-specific)
# [9] = in vitro model: butyrate, time point: terminal (~4-5 doublings, model-specific)
# [10] = in vitro model: cholesterol 0.05 mM, time point: constant (~7 days, model-specific)
# [11] = in vitro model: cholesterol 0.05 mM, time point: terminal (~4-5 doublings, model-specific)
# [12] = in vitro model: cholesterol-high 0.2 mM, time point: constant (~7 days, model-specific)
# [13] = in vitro model: cholesterol-high 0.2 mM, time point: terminal (~4-5 doublings, model-specific)
# [14] = in vitro model: dormancy (butyrate + nitrate, low O2), time point: constant (~7 days, model-specific)
# [15] = in vitro model: dormancy (butyrate + nitrate, low O2), time point: terminal (~4-5 doublings, model-specific)
# [16] = in vitro model: standard 7H9 glycerol, time point: constant = terminal
# [17] = in vitro model: valerate, time point: constant (~7 days, model-specific)
# [18] = in vitro model: valerate, time point: terminal (~4-5 doublings, model-specific)
# [19] = in vitro model: intracellular J774, time point: constant = terminal
structure (smiles),measurement,setting,value
CC[C@@H](CO)NCCN[C@@H](CC)CO [ethambutol] + NNC(=O)c1ccncc1 [isoniazid] + CO[C@H]1/C=C/O[C@@]2(C)Oc3c(C)c(O)c4c(O)c(c(/C=N/N5CCN(C)CC5)c(O)c4c3C2=O)NC(=O)/C(C)=C\C=C\[C@H](C)[C@H](O)[C@@H](C)[C@@H](O)[C@@H](C)[C@H](OC(C)=O)[C@@H]1C [rifampicin],AUC25,[1]; [6],0.104
same,AUC25,[1]; [7],0.0385
same,AUC25,[1]; [8],0.0804
same,AUC25,[1]; [9],0.0612
same,AUC25,[1]; [10],0.0636
same,AUC25,[1]; [11],0.0895
same,AUC25,[1]; [12],0.0326
same,AUC25,[1]; [13],0.0525
same,AUC25,[1]; [14],0.0838
same,AUC25,[1]; [15],0.079
same,AUC25,[1]; [16],0.0526
same,AUC25,[1]; [17],0.0369
same,AUC25,[1]; [18],0.0264
same,GRinf,[2]; [6],-0.0987
same,GRinf,[2]; [7],-0.0837
same,GRinf,[2]; [8],-0.0122
same,GRinf,[2]; [9],-0.0091
same,GRinf,[2]; [10],0.000894
same,GRinf,[2]; [11],0.194
same,GRinf,[2]; [12],-0.23
same,GRinf,[2]; [13],-0.778
same,GRinf,[2]; [14],0.364
same,GRinf,[2]; [15],-0.165
same,GRinf,[2]; [19],-0.321
same,GRinf,[2]; [16],0.116
same,GRinf,[2]; [17],0.000652
same,GRinf,[2]; [18],0.0672
same,total FIC90,[3]; [7],-0.549
same,total FIC90,[3]; [9],-0.403
same,total FIC90,[3]; [13],0.871
same,total FIC90,[3]; [15],-0.24
same,total FIC90,[3]; [19],-2.19
same,total FIC90,[3]; [18],-0.619
same,total FIC50,[4]; [6],-0.427
same,total FIC50,[4]; [7],0.126
same,total FIC50,[4]; [8],0.2
same,total FIC50,[4]; [9],0.238
same,total FIC50,[4]; [10],-0.456
same,total FIC50,[4]; [11],0.41
same,total FIC50,[4]; [12],0.757
same,total FIC50,[4]; [13],0.99
same,total FIC50,[4]; [14],-0.262
same,total FIC50,[4]; [15],0.173
same,total FIC50,[4]; [16],0.199
same,total FIC50,[4]; [17],0.253
same,total FIC50,[4]; [18],0.302
same,Einf,[5]; [6],0.899
same,Einf,[5]; [7],0.97
same,Einf,[5]; [8],0.936
same,Einf,[5]; [9],0.972
same,Einf,[5]; [10],0.617
same,Einf,[5]; [11],0.867
same,Einf,[5]; [12],0.915
same,Einf,[5]; [13],0.997
same,Einf,[5]; [14],0.872
same,Einf,[5]; [15],0.992
same,Einf,[5]; [19],0.967
same,Einf,[5]; [16],0.9
same,Einf,[5]; [17],0.853
same,Einf,[5]; [18],0.932
CC[C@@H](CO)NCCN[C@@H](CC)CO [ethambutol] + NNC(=O)c1ccncc1 [isoniazid] + COc1c(N2C[C@@H]3CCCN[C@@H]3C2)c(F)cc2c(=O)c(C(=O)O)cn(C3CC3)c12 [moxifloxacin],AUC25,[1]; [6],0.0955
same,AUC25,[1]; [7],0.0597
same,AUC25,[1]; [8],0.0852
same,AUC25,[1]; [9],0.0658
same,AUC25,[1]; [10],0.119
same,AUC25,[1]; [11],0.0714
same,AUC25,[1]; [12],0.0564
same,AUC25,[1]; [13],0.0472
same,AUC25,[1]; [14],0.119
same,AUC25,[1]; [15],0.125
same,AUC25,[1]; [16],0.0677
same,AUC25,[1]; [17],0.0908
same,AUC25,[1]; [18],0.0784
same,GRinf,[2]; [6],-0.273
same,GRinf,[2]; [7],-0.253
same,GRinf,[2]; [8],-0.0732
same,GRinf,[2]; [9],-0.0933
same,GRinf,[2]; [10],-0.268
same,GRinf,[2]; [11],0.0114
same,GRinf,[2]; [12],-0.315
same,GRinf,[2]; [13],-0.686
same,GRinf,[2]; [14],0.356
same,GRinf,[2]; [15],-0.134
same,GRinf,[2]; [19],-0.437
same,GRinf,[2]; [16],-0.186
same,GRinf,[2]; [17],-0.0258
same,GRinf,[2]; [18],0.0174
same,total FIC90,[3]; [7],0.326
same,total FIC90,[3]; [9],0.445
same,total FIC90,[3]; [11],0.826
same,total FIC90,[3]; [13],0.977
same,total FIC90,[3]; [15],0.658
same,total FIC90,[3]; [19],-0.746
same,total FIC90,[3]; [16],0.328
same,total FIC90,[3]; [18],0.19
same,total FIC50,[4]; [6],-0.309
same,total FIC50,[4]; [7],0.821
same,total FIC50,[4]; [8],0.655
same,total FIC50,[4]; [9],0.598
same,total FIC50,[4]; [10],0.425
same,total FIC50,[4]; [11],1.23
same,total FIC50,[4]; [12],0.863
same,total FIC50,[4]; [13],1.21
same,total FIC50,[4]; [14],0.357
same,total FIC50,[4]; [15],-0.452
same,total FIC50,[4]; [16],0.205
same,total FIC50,[4]; [17],0.301
same,total FIC50,[4]; [18],0.421
same,Einf,[5]; [6],0.722
same,Einf,[5]; [7],0.933
same,Einf,[5]; [8],0.938
same,Einf,[5]; [9],0.974
same,Einf,[5]; [10],0.798
same,Einf,[5]; [11],0.92
same,Einf,[5]; [12],0.94
same,Einf,[5]; [13],1
same,Einf,[5]; [14],0.851
same,Einf,[5]; [15],0.986
same,Einf,[5]; [19],0.976
same,Einf,[5]; [16],0.975
same,Einf,[5]; [17],0.876
same,Einf,[5]; [18],0.953
CC[C@@H](CO)NCCN[C@@H](CC)CO [ethambutol] + NNC(=O)c1ccncc1 [isoniazid] + NC(=O)c1cnccn1 [pyrazinamide],AUC25,[1]; [6],0.0856
same,AUC25,[1]; [7],0.076
same,AUC25,[1]; [8],0.0862
same,AUC25,[1]; [9],0.0571
same,AUC25,[1]; [10],0.115
same,AUC25,[1]; [11],0.119
same,AUC25,[1]; [12],0.0628
same,AUC25,[1]; [13],0.0569
same,AUC25,[1]; [14],0.0979
same,AUC25,[1]; [15],0.104
same,AUC25,[1]; [16],0.063
same,AUC25,[1]; [17],0.069
same,AUC25,[1]; [18],0.0469
same,GRinf,[2]; [6],-0.322
same,GRinf,[2]; [7],-0.269
same,GRinf,[2]; [8],-0.0472
same,GRinf,[2]; [9],0.000899
same,GRinf,[2]; [10],-0.282
same,GRinf,[2]; [11],-0.377
same,GRinf,[2]; [12],-0.27
same,GRinf,[2]; [13],-0.8
same,GRinf,[2]; [14],0.394
same,GRinf,[2]; [15],-0.0582
same,GRinf,[2]; [19],-0.458
same,GRinf,[2]; [16],0.233
same,GRinf,[2]; [17],0.124
same,GRinf,[2]; [18],0.113
same,total FIC90,[3]; [7],-0.0381
same,total FIC90,[3]; [9],0.0924
same,total FIC90,[3]; [13],0.821
same,total FIC90,[3]; [15],1.09
same,total FIC90,[3]; [19],0.0195
same,total FIC90,[3]; [18],0.569
same,total FIC50,[4]; [6],0.219
same,total FIC50,[4]; [7],0.788
same,total FIC50,[4]; [8],0.362
same,total FIC50,[4]; [9],0.43
same,total FIC50,[4]; [11],0.635
same,total FIC50,[4]; [12],0.837
same,total FIC50,[4]; [13],0.879
same,total FIC50,[4]; [14],-0.294
same,total FIC50,[4]; [15],0.22
same,total FIC50,[4]; [16],0.587
same,total FIC50,[4]; [17],0.411
same,total FIC50,[4]; [18],0.582
same,Einf,[5]; [6],0.755
same,Einf,[5]; [7],0.953
same,Einf,[5]; [8],0.936
same,Einf,[5]; [9],0.956
same,Einf,[5]; [10],0.804
same,Einf,[5]; [11],0.953
same,Einf,[5]; [12],0.921
same,Einf,[5]; [13],1
same,Einf,[5]; [14],0.822
same,Einf,[5]; [15],0.972
same,Einf,[5]; [19],0.988
same,Einf,[5]; [16],0.862
same,Einf,[5]; [17],0.819
same,Einf,[5]; [18],0.898

# Source: the supplement of paper PMC8617591
